Data published in PubChem BioAssay (NCI).
Where “and” joins values, the source holds several entries; their conditions need not be identical. Equal entries are not always repeated.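 Where inhibition never reached the appropriate level, the endpoint shown equals the highest concentration tested. Otherwise, values were interpolated linearly from a five-concentration, 48-hour dose response in 96-well plates. GI50: concentration for 50% inhibition of growth. The concentration for full growth arrest is given as TGI.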

Tests used:
Assay in all cases: DTP human tumour cell line panel, 48 h
[1] = test system: PC-3 prostate
[2] = test system: MDA-MB-435
[3] = test system: T-47D breast
[4] = test system: KM20L2 colon
[5] = test system: HOP-18 NSCLC
[6] = test system: LXFL 529 NSCLC
[7] = test system: RXF-631 renal
[8] = test system: XF 498 CNS
[9] = test system: MDA-N

| SMILES | GI50 [1] | TGI [1] | GI50 [2] | TGI [2] | GI50 [3] | TGI [3] | TGI [4] | TGI [6] | also measured |
| --- | --- | --- | --- | --- | --- | --- | --- | --- | --- |
| Cc1cccc(Cc2cnc(NC(=O)CCCOc3ccc(Cl)cc3)s2)c1 | 4.58 µM | > 100 µM | 1.62 µM | 4.32 µM | 5.82 µM | > 100 µM | – | – | – |
| Cc1c2cc[n+](C)cc2c(C)c2c1[nH]c1ccc(Oc3ccccc3)cc12 | – | – | – | – | – | – | 23 µM and > 52.3 µM | 6.13 µM and 6.82 µM | GI50 [5]: 2.37 µM and 5.56 µM; TGI [5]: 21.8 µM and 32.5 µM |
| COc1ccc(C[C@H](N)C(=O)N[C@@H]2[C@@H](CO)OC(n3cnc4c(N(C)C)ncnc43)[C@@H]2O)cc1 (stereo not given in full) | 0.311 µM | 1.73 µM | 0.214 µM | 0.809 µM | 0.137 µM | 0.565 µM | – | – | – |
| CC1CC2C(=O)N(c3ccccc3)C(=O)C2c2[nH]c3ccccc3c21 (stereo not given) | – | – | – | – | – | – | – | > 100 µM | TGI [7]: > 100 µM |
| O=C(/C=C/c1ccc(OCC(=O)N2CCN(c3ccccc3)CC2)cc1)c1ccccc1 | – | – | – | – | – | – | > 66 µM | > 94.2 µM | TGI [5]: > 82.7 µM |
| Nc1ccc2ncc(Nc3ccc(Cl)c(Cl)c3)nc2c1 | – | – | – | – | – | – | > 100 µM | > 100 µM | TGI [8]: 60.8 µM |
| O=C(c1ccccc1)c1ccc(N2C(=O)C3C4c5ccccc5C(/C=C/C(=O)c5ccccn5)(c5ccccc54)C3C2=O)cc1 (stereo not given) | 3.74 µM | > 100 µM | 2.9 µM | 9.22 µM | 2.75 µM | > 100 µM | – | – | – |
| ClCc1ccc(Cn2cnc3nc(Cl)nc(Cl)c32)cc1 | 2.9 µM | 7.98 µM | 1.71 µM | 3.19 µM | 1.36 µM | 4.82 µM | – | – | – |
| CCOC(=O)c1c(/C=N\Nc2ccccc2)nc2ccccc2c1-c1ccccc1 | – | – | – | – | – | – | > 100 µM | > 100 µM | TGI [5]: > 100 µM; TGI [7]: > 100 µM |
| O=C(Nc1cccc(C(F)(F)F)c1)Nc1ccc(OCc2nnc(-c3ccccc3)o2)c(F)c1 | 2.01 µM | 13.7 µM | 7.51 µM | 89.8 µM | 2.44 µM | 16.1 µM | – | – | – |
| Cc1ccc(S(=O)(=O)NCc2cccc([N+](=O)[O-])c2)cc1 | – | > 100 µM | – | > 100 µM | – | > 100 µM | – | – | TGI [9]: > 100 µM |
| CN(C)C(=O)c1cc2cnc(Nc3ccc(N4CCNCC4)cn3)nc2n1C1CCCC1 | 1.01 µM | 62.9 µM | 12.7 µM | 36.6 µM | 12.9 µM | 91.8 µM | – | – | – |
| O=C1OC(c2ccccc2)=N/C1=C\c1ccc(N(CCCl)CCCl)cc1 | – | > 100 µM | – | > 100 µM | – | > 84.8 µM | – | – | TGI [9]: > 100 µM |
| O=C(Nc1ccccc1)Oc1ccccc1C1CCCCC1 | – | – | – | – | – | – | – | > 100 µM | TGI [5]: 68.5 µM; TGI [8]: 35 µM |
| CCCCc1c2c(nc3c1CC/C(=C\c1ccccc1)C3=O)CCCC2 | – | – | – | – | – | – | 12.7 µM | 4.16 µM | – |
| COc1ccc(S(=O)(=O)NCCCNc2nccc(-c3c(-c4ccc(F)cc4)nc4sccn34)n2)cc1 | 8.74 µM | > 100 µM | 3.28 µM | > 100 µM | 3.24 µM | 71.3 µM | – | – | – |
| Cn1c(=O)c(Oc2ccc(F)cc2F)cc2cnc(NC3CCC(O)CC3)nc21 (stereo not given) | > 25 µM | > 25 µM | > 25 µM | > 25 µM | > 25 µM | > 25 µM | – | – | – |
| CCOC(=O)C1=C(O)c2c(OC)ccc(OC)c2C(=O)C1=O | – | – | – | – | – | – | > 100 µM | – | TGI [5]: > 100 µM; TGI [8]: > 100 µM |

| SMILES | GI50 [1] | TGI [1] | GI50 [2] | TGI [2] | GI50 [3] | TGI [3] | TGI [4] | TGI [6] | also measured |
| --- | --- | --- | --- | --- | --- | --- | --- | --- | --- |
| Nc1ccc(N)c2c1C(=O)c1cccc([N+](=O)[O-])c1C2=O | 15.6 µM | > 100 µM | 6.3 µM | > 100 µM | 6.99 µM | > 100 µM | – | – | – |
| CCNC(=O)O/N=C1/C=C2CC[C@@H]3C(CC[C@@]4(C)C3CC[C@@H]4OC(=O)NCC)[C@@]2(C)CC1 (stereo not given in full) | – | – | – | – | – | – | 5.15 µM | 3.4 µM | – |
| O=C1C(=O)c2c(ccc3ccccc23)-c2ccccc21 | 1.81 µM | 6.25 µM | 1.59 µM | 3.52 µM | 1.75 µM | 3.96 µM | – | – | – |
| CC(C)(CCc1nc2ccccc2[nH]1)C(=O)O | – | > 100 µM | – | > 100 µM | – | > 100 µM | – | – | TGI [9]: > 100 µM |
| C=CCCC1(CCP(=O)(c2ccccc2)c2ccccc2)OCCO1 | – | > 100 µM | – | > 100 µM | – | – | – | – | TGI [9]: > 100 µM |
| CC(=O)OCC1OC(OC(C)=O)C(NC#N)C(OC(C)=O)C1OC(C)=O (stereo not given) | – | – | – | – | – | – | – | > 100 µM | TGI [5]: > 100 µM |
| CCOC(=O)NC/C=C/CO | – | – | – | – | – | – | > 100 µM | > 100 µM | TGI [5]: > 100 µM; TGI [7]: > 100 µM |
| Cc1c(N)nc(C2CC(=O)N2CC(N)C(N)=O)nc1C(=O)NC(C(=O)NC(C)C(O)C(C)C(=O)NC(C(=O)NCCc1nc(-c2nc(C(=O)NCCNCC(C)O)cs2)cs1)C(C)O)C(OC1OC(CO)C(O)C(O)C1OC1OC(CO)C(O)C(OC(N)=O)C1O)c1cnc[nH]1 (stereo not given) | – | > 50 µM | – | 36.4 µM | – | > 5 µM | > 100 µM | > 100 µM | TGI [9]: > 50 µM; TGI [5]: > 100 µM; TGI [8]: > 22.4 µM |
| COc1cccc2c(Nc3ccc(C(=O)NCCN4CCNCC4)cc3)cc(-c3ccccc3)nc12 | 25.8 µM | > 100 µM | 35.9 µM | > 100 µM | 29.4 µM | > 100 µM | – | – | – |
| O=C(/C=C/N1CCN(c2cccc(Cl)c2)CC1)c1ccc(Cl)cc1 | 25.3 µM | > 100 µM | 19.3 µM | 50.2 µM | 51.2 µM | > 100 µM | – | – | – |
| O=C(Nc1cccc(C(F)(F)F)c1)Nc1cc(S(=O)(=O)NC2CC2)ccc1-c1ccsc1 | 3.4 µM | 18.6 µM | 3.61 µM | 13.1 µM | 3.16 µM | 15 µM | – | – | – |
| COc1ccc(Cl)cc1Nc1nc(C(F)(F)F)ccc1C(=O)N/N=C/c1ccc(Cl)cc1 | > 100 µM | > 100 µM | > 100 µM | > 100 µM | 0.971 µM | > 100 µM | – | – | – |
| COC(=O)N/N=C(\c1nc2ccc(Cl)cc2[nH]c1=O)C(O)c1ccc([N+](=O)[O-])cc1 (stereo not given) | – | – | – | – | – | – | > 100 µM | > 100 µM | TGI [7]: > 100 µM |
| COC(=O)CCSC(=O)Nc1ccccc1Cl | – | – | – | – | – | – | > 100 µM | > 100 µM | – |
| CN1OC(CO)CC12C1CC3CC(C1)CC2C3 (stereo not given) | – | – | – | – | – | – | > 100 µM | > 100 µM | TGI [5]: > 100 µM |
| Cn1c(=O)c(-c2c(Cl)cccc2Cl)cc2cnc(Nc3ccc(N4CCOCC4)cc3)nc21 | 0.474 µM | > 100 µM | – | – | 0.598 µM | 9.77 µM | – | – | – |
| COc1cc(-c2nn(-c3cccc(NC(=O)c4cccc(C(F)(F)F)c4)c3)cc2-c2ccncc2)ccc1Cl | 1.23 µM | > 50 µM | – | – | 2.55 µM | > 50 µM | – | – | – |
